SMILES strings stand for the structures. Where two headings read alike, the source gives them in different places.

Seven molecules from patent US20250163062A1, “WNT PATHWAY INHIBITOR COMPOUNDS” (ADLAI NORTYE BIOPHARMA CO., LTD., priority 2022, published 2025) can be followed below.

Assay type in all cases: cell-based
Test [1] has as its system Colo205-LUC-TCF/LEF reporter gene. Nature of the test: Colo205-LUC-TCF/LEF M1 reporter cell line luciferase inhibition. Particulars: 4 hours incubation, firefly luciferase signal. As to the method: Colo205 cell line (Cell Bank of Chinese Academy of Sciences, Cat #TCHul02) was purchased from the Cell Bank of Chinese Academy of Sciences. After expansion and subculture, during the exponential growth phase, luciferase reporter plasmid (Promega) driven by TCF/LEF transcription factor was transfected by lipo3000 liposome transfection. The plasmid carries a resistance gene for resistance screening. Transfection was carried out in 10 cm culture dishes using conventional complete medium without resistance. After 2 days, the medium with resistance was replaced, and the culture was continued. After that, the medium with resistance was replaced every 2 days, and the suspended cells were discarded. The original medium was centrifuged to remove cells and debris and retained as an adaptive medium. When the cells covered the culture dish, the cells were digested, counted, and passaged in a 96-well plate, so that the average number of cells contained in each well was 1.5/well, and the adaptive medium was used for passage. The rest of the cells were frozen. After passage, culture for 4 hours to allow the cells to adhere to the wall, and then observe the number of cells in each well under a microscope. Wells with only 1 cell per well were labeled as monoclonal wells. Afterwards, normal culture was performed, and the culture medium was replaced every 2 days, and observed. There are wells where the monoclonal cells continue to grow in the early stage, and they are labeled twice, and can be replaced with normal medium with resistance. When a monoclonal well was overgrown with a 96-well plate, it is digested and passaged to a 24-well culture plate. After the 24-well plate is overgrown, it is passaged to a 96-well plate and a 6-well plate. The cells in a 96-well plate are at least 6 wells, of which 3 wells were added with known Wnt inhibitors, and the other 3 wells were not treated. After 24 hours, the cells in the 96-well plate were added with a fluorescence detection reagent to detect the fluorescence intensity. Cell lines with fluorescent expression when not treated and decreased fluorescent light after inhibition were selected and further cultured. The Colo205-LUC-TCF/LEF-M1 cell line is one of the cell lines screened above. Its growth curve, cell shape, and cell growth state are similar to those of the original Colo205 cells, and the ratio of the fluorescent signals of the inhibitor-treated and untreated cells is the largest among all cell lines, and the ratio can reach 4-5 times when inhibited at 4 hours, which was completely suitable for the screening of Wnt inhibitors in the later stage.
The Colo205-LUC-TCF/LEF M1 cell line is a reporter tool cell stably transfected with the pGL4.49-LUC2-TCF/LEF vector. The β-catenin Wnt pathway is continuously activated. After adding the inhibitor, the Wnt pathway is inhibited. The expression of firefly luciferase regulated by the TCF/LEF cis-element decreased, and after adding the detection substrate, the detected light signal decreased accordingly, so as to detect the inhibitory effect of the compound.
To a 96-well cell culture plate, add 100 uL of the compound with a maximum concentration of 20 uM to each well, and make a 3-fold serial dilution of the compound concentration. Then 10,000 colo205 cells stably transfected with the reporter gene and 100 uL medium were inoculated into each well, and corresponding positive and negative control wells were made at the same time. Put the cells in a 5% CO2 incubator and incubate at 37° C. for 4 hours. After 4 hours, remove the culture medium, add 100 μL of reagent (Promega) containing the corresponding firefly luciferase substrate to each well, and measure the activity of luciferase reporter gene. Luminescence intensity was read with SpectraMax in full wavelength mode. […]

The subject of a further test is Colo205. Nature of the test: Proliferation inhibition test, Wnt mutant cell line Colo205. Conditions: Colo205, 96 h culture with compound, read-out: Antiproliferation IC50 Colo205. The source says: (§1) The cell lines used in the experiment are Colo205, H929, HepG2, and DU4475, which have sustained activation of the Wnt pathway and whose proliferation is Wnt pathway-dependent. On the other hand, RKO cell line, in which normally the Wnt pathway is not activated and whose proliferation is not Wnt pathway-dependent, was used as a control cell line. This was done to determine whether the inhibitory effect of the compound of the present disclosure on Wnt-dependent proliferation is due to other nonspecific toxicity.
(§2) Colo205, H929, DU4475, HepG2 and RKO cell lines cultured in their respective culture media were treated in the logarithmic growth phase, and the cells were collected and prepared into a uniform cell suspension of known concentration, and then added to a 96-well cell culture plate so that each well contained 1000-4000 cells. Place in a 5% CO2 cell culture incubator and culture at 37° C. for 20-24 h. On the second day, add the completely dissolved, 3-fold gradient dilution compound to each cell culture well to make the final maximum concentration in the cell culture well 10 uM, and continue to culture for 96 h. This test uses Promega's cell activity detection test for detection. The more the cells proliferate, the stronger the final signal intensity. The detection instrument is SpectraMax, full wavelength mode. The wells with only DMSO added were used as positive control wells, and the wells without cells inoculated were used as negative control wells.

The next test relates to DU4475. The experiment in a line: Proliferation inhibition test, Wnt mutant cell line DU4475. Particulars: Homo sapiens, DU-4475, 96 h, DU4475, 96 h culture with compound; read-out: Antiproliferation IC50 DU4475.
Source text: as §1, §2

Another test deals with H929. Nature of the test: Proliferation inhibition test, Wnt mutant cell line H929. Particulars: Homo sapiens, NCI-H929, 96 h, H929, 96 h culture with compound; read-out: Antiproliferation IC50 H929.
Source text: as §1, §2

In another test the test system is HepG2. The experiment in a line: Proliferation inhibition test, Wnt mutant cell line HepG2. Conditions: HepG2, 96 h culture with compound, read-out: Antiproliferation IC50 HepG2.
Source text: as §1, §2

Another test has as its system RKO. Nature of the test: Proliferation inhibition test, non-Wnt mutant control cell line RKO. Particulars: Homo sapiens; RKO (Wnt pathway not activated, control), 96 h culture, maximum concentration 10 uM; read-out: Antiproliferation IC50 RKO.
Source text: as §1, §2

For `CN(c1nc(C(F)(F)F)ccc1Oc1ccc(CNc2nc3c4c(n2)N(C)[C@@](C)(CO)C(=O)N4CCC3)cn1)C1CC1` [Compound 20], the IC50 is 1.46 nM in test [1] (4 h); < 0.1 nM in the test with Colo205 (Homo sapiens, COLO 205, 96 h); < 0.1 nM with DU4475; 52 nM in the test with H929; 3.22 nM in the test on HepG2 (Homo sapiens, HepG2, 96 h); > 10000 nM with RKO.

For `[2H]C([2H])([2H])N1c2nc(NCc3ccc(Oc4ccc(C(F)(F)F)nc4Cl)nc3)nc3c2N(CCC3)C(=O)[C@]1(C)CO` [Compound 3, (S)-2-(((6-((2-chloro-6-(trifluoromethyl)pyridin-3-yl)oxy)pyridin-3-yl)methyl)amino)-5-(hydroxymethyl)-5-methyl-4-(methyl-d3)-4,5,9,10-tetrahydro-6H,8H-pyrido[3,2,1-de]pteridin-6-one], the IC50 is 15.6 nM in test [1] (4 h); 4.48 nM in the test on Colo205 (Homo sapiens, COLO 205, 96 h); 3.06 nM in the test on DU4475; 20 nM in the test with H929; 2.17 nM in the test on HepG2 (Homo sapiens, HepG2, 96 h); > 10000 nM in the test on RKO.

Regarding `Cc1nc(C(F)(F)F)ncc1Oc1ccc(CNc2nc3c4c(n2)N(C)[C@@](C)([C@H](C)O)C(=O)N4CCC3)cn1` [Compound 6, (S)-5-((S)-1-hydroxyethyl)-4,5-dimethyl-2-(((6-((4-methyl-2-(trifluoromethyl)pyrimidin-5-yl)oxy)pyridin-3-yl)methyl)amino)-4,5,9,10-tetrahydro-6H,8H-pyrido[3,2,1-de]pteridin-6-one], the IC50 in test [1] was 65.6 nM; with Colo205 it was 9.05 nM; with DU4475, 47.4 nM; in the test with H929, 303 nM; with HepG2 it was 109 nM; in the test on RKO, > 10000 nM.

For the molecule `CN1c2nc(NCc3ccc(Oc4ccc(C(F)(F)F)nc4Cl)nc3)nc3c2N(CCC3)C(=O)[C@@H]1CO` [Compound 2, (S)-2-(((6-((2-chloro-6-(trifluoromethyl)pyridin-3-yl)oxy)pyridin-3-yl)methyl)amino)-5-(hydroxymethyl)-4-methyl-4,5,9,10-tetrahydro-6H,8H-pyrido[3,2,1-de]pteridin-6-one], the IC50 was 22.5 nM in test [1] (4 h); 8.67 nM in the test with Colo205 (Homo sapiens, COLO 205, 96 h); 5.05 nM with DU4475; 47.7 nM with H929; 1.68 nM in the test on HepG2 (Homo sapiens, HepG2, 96 h); > 10000 nM with RKO.

As for `[2H]C([2H])([2H])N1c2nc(NCc3ccc(Oc4cnc(C(F)(F)F)nc4C)nc3)nc3c2N(CCC3)C(=O)[C@]1(C)CO` [Compound 5, (S)-5-(Hydroxymethyl)-5-methyl-4-(methyl-d3)-2-(((6-((4-methyl-2-(trifluoromethyl)pyrimidin-5-yl)oxy)pyridin-3-yl)methyl)amino)-4,5,9,10-tetrahydro-6H,8H-pyrido[3,2,1-de]pteridin-6-one], the IC50 was 50.9 nM in test [1] (4 h); 20.6 nM in the test with Colo205 (Homo sapiens, COLO 205, 96 h); 14.4 nM in the test with DU4475; 160 nM with H929; 33.5 nM with HepG2 (Homo sapiens, HepG2, 96 h); > 10000 nM in the test on RKO.

Take `CN1c2nc(NCc3ccc(Oc4ccc(C(F)(F)F)nc4F)nc3)nc3c2N(CCC3)C(=O)[C@@H]1CO` [Compound 26]: the IC50 in test [1] (4 h) was 43.8 nM; in the test with Colo205 (Homo sapiens, COLO 205, 96 h) it was 18.9 nM; in the test with DU4475, 12.1 nM; in the test with H929 it was 98.8 nM; with HepG2 (Homo sapiens, HepG2, 96 h), 13.6 nM; in the test on RKO it was > 10000 nM.

As to `[2H]C([2H])([2H])N1c2nc(NCc3ccc(Oc4ccc(C(F)(F)F)nc4Br)nc3)nc3c2N(CCC3)C(=O)[C@]1(C)CO` [Compound 12, (S)-2-(((6-((2-bromo-6-(trifluoromethyl)pyridin-3-yl)oxy)pyridin-3-yl)methyl)amino)-5-(hydroxymethyl)-5-methyl-4-(methyl-d3)-4,5,9,10-tetrahydro-6H,8H-pyrid o[3,2,1-de]pteridin-6-one], the IC50 was 9.09 nM in test [1] (4 h); 6.52 nM in the test with Colo205 (Homo sapiens, COLO 205, 96 h); 0.82 nM in the test with DU4475; 31.3 nM in the test on H929; 12.1 nM in the test with HepG2 (Homo sapiens, HepG2, 96 h); > 10000 nM with RKO.
